# US20100331361A1, “PHARMACEUTICAL COMPOSITION CONTAINING ALPHA-ADRENERGIC RECEPTOR ANTAGONIST AND AN ANTI-MUSCARINIC AGENT AND METHOD OF IMPROVING LOWER URINARY TRACT SYMPTOMS ASSOCIATED WITH PROSTATIC HYPERTROPHY” (ASTELLAS PHARMA INC., priority 2007, published 2010)
# Where a name gives a salt, the structure may show the parent alone.
# Experiments:
# [1] = system: patients with prostatic hypertrophy accompanied with overactive bladder symptoms; conditions: cited from earlier work
# [2] = system: Male human patients with prostatic hypertrophy who still had symptoms of overactive bladder; experiment: I-PSS evaluation after four weeks, Single Group vs Combination Group (Example 1); format: in vivo; design: key to Scores of voiding symptoms (2) (4) (7) / Scores of voiding symptoms (2) (4) (7), Change / Total scores of I-PSS / Scores of storage symptoms (1) (3) (5) (6) / Scores of storage symptoms (1) (3) (5) (6), Change: summed item scores, each 0-5; higher = worse symptoms
# Description: I-PSS is one of the criteria to evaluate the severity of the foregoing lower urinary tract symptoms by scoring responses to the following questions:
# (2) During the last month, have you had to urinate again in less than two hours after you last urinated? (3) During the last month, have you experienced interrupted urination? (4) During the last month, have you found it difficult to postpone urination? […] (6) During the last month, have you had to strain to urinate? (7) During the last month, how many times did you typically have to get up to urinate after you went to bed until you got up in the morning?
# The indices (1), (3), (5) and (6) evaluate voiding symptoms, and indices (2), (4) and (7) evaluate storage symptoms. Among these, responses to (1)-(6) are scored: 0 if the response was not at all, 1 if fewer than 1 time in 5, 2 if fewer than 1 time in 2, 3 if about 1 time in 2, 4 if more than 1 time in 2, and 5 if almost always. Additionally, the responses to (7) are respectively scored: 0, 1, 2, 3, 4, and 5 if the response was none, 1 time, 2 times, 3 times, 4 times, and 5 times or more.
# Male human patients with prostatic hypertrophy who still had symptoms of overactive bladder (urgency, pollakiuria, urinary incontinence and/or nocturia, and the like.) after treatment with an α receptor antagonist for four weeks or longer were allocated for administration to two treatment groups: (1) tamsulosin hydrochloride 0.2 mg (hereinafter referred to as “Single Group”), and (2) tamsulosin hydrochloride 0.2 mg and solifenacin succinate 2.5 mg (hereinafter referred to as “Combination Group”), and then their symptoms were evaluated by I-PSS after four weeks of treatment. In Table 1 since the score of I-PSS becomes greater as the symptom worsens, greater minus change in scores indicates greater efficacy for the symptoms.
# [3] = After treatment of 4 weeks, tamsulosin hydrochloride 0.2 mg alone or with solifenacin succinate 2.5 mg
# [4] = Before treatment, tamsulosin hydrochloride 0.2 mg alone or with solifenacin succinate 2.5 mg
# [5] = Change after 4 weeks, tamsulosin hydrochloride 0.2 mg alone or with solifenacin succinate 2.5 mg
smiles,measurement,setting,value
CCCOC(C(=O)OC1CCN(C)CC1)(c1ccccc1)c1ccccc1 [Propiverine],acute urinary retention (AUR),[1]; added to doxazosin,no acute AUR was observed
same,effect on the urinary flow rate,[1]; added to doxazosin,did not affect
"CCOc1ccccc1OCCN[C@H](C)Cc1ccc(OC)c(S(N)(=O)=O)c1 [Single, (R)-5-(2-{[2-(2-ethoxyphenoxy)ethyl]amino}propyl-2-methoxybenzene-1-sulfonamide hydrochloride]",Scores of storage symptoms (1) (3) (5) (6),[2]; [3],5.8
same,Scores of voiding symptoms (2) (4) (7),[2]; [3],4.2
same,Total scores of I-PSS,[2]; [3],10.8
same,Total scores of I-PSS,"[2]; Before treatment, tamsulosin hydrochloride 0.2 mg alone (Single) or with solifenacin succinate 2.5 mg (Combination)",11.6
same,Scores of storage symptoms (1) (3) (5) (6),[2]; [4],6.5
same,Scores of voiding symptoms (2) (4) (7),[2]; [4],4.2
same,"Scores of storage symptoms (1) (3) (5) (6), Change",[2]; [5],−0.7
same,"Scores of voiding symptoms (2) (4) (7), Change",[2]; [5],0.0
same,"Total scores of I-PSS, Change",[2]; [5],−0.8
COc1cc2nc(N3CCN(C(=O)C4COc5ccccc5O4)CC3)nc(N)c2cc1OC (centres unmarked) [doxazosin],improvement of the storage symptom score,[1]; in vivo,2.9 points
same,improvement of the total I-PSS,[1]; in vivo,7.3 points
same,improvement of the voiding symptom score,[1]; in vivo,4.5 points
